# Counter-ions that a name gives are not always drawn. Like-named read-outs stand apart in the source and are kept apart here.
# Experiments:
# [1] = target: T1, Plasmodium falciparum dUTPase (Plasmodium falciparum, UniProt Q8II92); assay: Malaria enzyme assay: inhibition of Plasmodium falciparum dUTPase; type: biochemical
# T1 construct: made in house; host or cells: E. coli BL21 (DE3)
# T1 sequence (Q8II92 1-173): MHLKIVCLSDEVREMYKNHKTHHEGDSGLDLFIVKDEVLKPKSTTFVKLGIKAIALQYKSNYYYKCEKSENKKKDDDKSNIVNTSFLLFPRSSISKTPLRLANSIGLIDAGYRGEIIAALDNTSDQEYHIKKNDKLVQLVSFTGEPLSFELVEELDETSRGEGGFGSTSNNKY
# Description: Inhibition of Plasmodium falciparum dUTPase
# 2′-dUTP, was purchased from Pharmacia. MgCl2, BSA, and the pH indicator cresol red were from Sigma. The buffer N,N-bis(2-hydroxyethyl)glycine (BICINE) was obtained from USB (United States Biochemical), Ohio. All the concentrations of nucleotides were calculated spectrophotometrically (HP-8453, Hewlett Packard) at 280 nm, using the extinction coefficient (ε280 nm=1.75 ml mg^−1cm^−1). Other chemicals used in these experiments were of the highest quality available.
# Recombinant P. falciparum dUTPase was purified from E. coli BL21 (DE3) cells transformed with pET-PFdut. Pellets from a liter of culture were resuspended in a solution consisting of buffer A (20 mM MES pH 5.5, 50 mM NaCl, 1 mM DTT) plus the protease inhibitors 1 mM PMSF, 20 μg/ml leupeptin and 1 mM benzamidine. Purification was carried out in a cold room (4° C.). The soluble crude extract was obtained by sonication in a Vibra-cell (Sonics and Materials Inc. Danbury, Conn., USA) and centrifugation at 14000×g. The extract was loaded onto a phosphocellulose column (Whatman) pre-equilibrated with buffer A at a flow rate of 1 ml/min. After washing the column with 100 ml of buffer A, elution was performed using a linear NaCl gradient of 50 to 1000 mM. Peak fractions with a low concentration of contaminating protein, as judged by 15% SDS-PAGE gels, were pooled and then loaded and chromatographed on a Superdex 200 column at a flow rate of 0.5 ml/min. The column was equilibrated with buffer B (50 mM Bicine, 1 mM DTT, 10 mM MgCl2). Peak fractions were pooled and concentrated to about 5 mg/ml by ultrafiltration in a Centripep tube (Amicon) and stored at −80° C.
# Nucleotide hydrolysis was monitored by mixing enzyme and substrate with a rapid kinetic accessory (Hi-Tech Scientific) attached to a spectrophotometer (Cary 50) and connected to a computer for data acquisition and storage. Protons, released through the hydrolysis of nucleotides, were neutralised by a pH indicator in a weak buffered medium with similar pKa and monitored spectrophotometrically at the absorbance peak of the basic form of the indicator. Absorbance changes were kept within 0.1 units. The indicator/buffer pair used was cresol red/BICINE ([…], pH 8, 573 nm). The measurements were performed at 25° C., and the solutions were previously degassed. Assays contained 30 nM purified recombinant enzyme, 50 μM dUTP, 5 mM MgCl2 and 2.5 mM DTT, 1.25 mg/ml BSA and 100 mM KCl. Indicator absorbance changes corresponding to complete hydrolysis of nucleotides were recorded in the computer, and the kinetic parameters Vmax and Kmapp (or slope) were calculated by fitting the data to the integrated Michaelis-Menten equation (Segel, 1975). [dUMP]/t=Vmax−Kmap/t ln [dUTP]([dUTP]−[dUMP])
# Solutions of potential inhibitors were prepared at 10 mg/ml and tested routinely at concentrations of […]. A wider range of concentrations was further tested when necessary for Ki determination. The different apparent Km values attained were plotted against inhibitor concentration and Ki values were obtained according to the following equation: […]
# Plasmodium falciparum = assay: Malaria whole cell assay (cell culture); type: cell-based; conditions: read-out: ED50 (the source's name)
# Description: (§1) Two strains of P. falcipanum are used in this study: The drug sensitive NF54 (an airport strain of unknown origin) and K1 (Thailand, chloroquine and pyrimethamine resistant). The strains are maintained in RPMI-1640 medium with 0.36 mM hypoxanthine supplemented with 25 mM HEPES, 25 mM NaHCO3, neomycin (100 U/ml) and Albumax® (lipid-rich bovine serum albumin) (GIBCO, Grand Island, N.Y.) (5 g/l), together with 5% washed human A+ erythrocytes. All cultures and assays are conducted at 37° C. under an atmosphere of 4% CO2, 3% O2 and 93% N2. Cultures are kept in incubation chambers filled with the gas mixture. Subcultures are diluted to a parasitaemia of 0.1-0.5% and the medium changed daily.
# (§2) Antimalarial activity is assessed using an adaptation of the procedures described by Desjardins et al. (Antimicrob. Agents Chemother. 16(6):710-8, 1979), and Matile and Pink (In: Lefkovits, I. and Pernis, B. (Eds.). Immunological Methods. Academic Press, San Diego, pp. 221-234, 1990).
# After use the stocks are kept at −20° C. The compound is further diluted to the appropriate concentration using complete medium without hypoxanthine.
# Assays are performed in sterile 96-well microtiter plates, each well containing 200 μl of parasite culture (0.15% parasitemia, 2.5% hematocrit) with or without serial drug solutions. Seven 2-fold dilutions are used covering a range from 5 μg/ml to 0.078 μg/ml.
# After 48 hours of incubation at 37° C., 0.5 μCi ^3H-hypoxanthine is added to each well. Cultures are incubated for a further 24 h before they are harvested onto glass-fiber filters and washed with distilled water. The radioactivity is counted using a Betaplate™ liquid scintillation counter (Wallac, Zurich, Switzerland). […] From the sigmoidal inhibition curves IC50 values are calculated.
# K1 strain is used. The compounds are tested at 7 concentrations (5000 to 78 ng/ml). Artemisinin and chloroquine are included as reference drugs.
# P. falciparum K1 = assay: Malaria whole cell assay, K1 strain; type: cell-based; conditions: Plasmodium falciparum
# Description: as §1, §2
# (§3) After use the stocks are kept at −20° C. The compound is further diluted to the appropriate concentration using complete medium without hypoxanthine. […]
# (§4) After 48 hours of incubation at 37° C., 0.5 μCi ^3H-hypoxanthine is added to each well. […] The radioactivity is counted using a Betaplate™ liquid scintillation counter (Wallac, Zurich, Switzerland). […] From the sigmoidal inhibition curves IC50 values are calculated. […]
# P. falciparum NF54 = assay: Malaria whole cell assay, NF54 strain; type: cell-based; conditions: Plasmodium falciparum
# Description: as §1, §2, §3, §4
# [2] = Plasmodium falciparum enzyme, read-out: Ki
melting point,Structure (SMILES),Ki [1],EC50 (Plasmodium falciparum),"Ki [1, 2]",further results
–,"CC(C)(C)[Si](OC[C@H]1O[C@@H](n2ccc(=O)[nH]c2=O)CC1F)(c1ccccc1)c1ccccc1 (stereo partly shown) [drawing 58 TBDPSO, 3′-Fluoro-5′-O-tert-Butyidiphenylsilyl-2′,3′-dideoxyuridine]",89 µM,8.8 µM,–,–
–,"CC(C)(C)[Si](C)(C)OC1C[C@H](n2ccc(=O)[nH]c2=O)O[C@@H]1CNC(c1ccccc1)(c1ccccc1)c1ccccc1 (stereo partly shown) [drawing 56 Ph3NH, 3′-O-tertbutyldimethylsilyl-5′-Tritylamino-2′,5-dideoxyuridine]",313 µM,1.8 µM,–,–
–,"O=c1ccn([C@H]2C[C@H](O)[C@@H](CO[Si](c3ccccc3)(c3ccccc3)c3ccccc3)O2)c(=O)[nH]1 [drawing 55 TPSO, 5′-O-Triphenylsilyl-2′-deoxyuridine]",–,1.1 µM,2.8 µM,–
–,"O=c1ccn([C@H]2C[C@H](O)[C@@H](CNC(c3ccccc3)(c3ccccc3)c3ccccc3)O2)c(=O)[nH]1 [drawing 55 Ph3CNH, 5′-Tritylamino-2′,5′-dideoxyuridine]",–,4.5 µM,0.2 µM,–
–,"CC(C)(C)[Si](OCC1C=CC(n2ccc(=O)[nH]c2=O)O1)(c1ccccc1)c1ccccc1 (stereo not shown) [drawing 57 TBDPSO, 5′-O-tert-butyldiphenylsilyl-2′,3′-dideoxydidehydrouridine]",–,3 µM,1.2 µM,–
–,"O=c1ccn([C@H]2C[C@H](F)[C@@H](CO[Si](c3ccccc3)(c3ccccc3)c3ccccc3)O2)c(=O)[nH]1 [drawing 58 TPSO, 3′-Fluoro-5′-O-triphenylsilyl-2′,3′-dideoxyuridine]",975 µM,1 µM,–,–
–,"CC(C)(C)[Si](C)(C)OC1CC(n2ccc(=O)[nH]c2=O)OC1COC(c1ccccc1)(c1ccccc1)c1ccccc1 (stereo not shown) [drawing 56 Ph3CO, 1-[4-(tert-Butyl-dimethyl-silanyloxy)-5-trityloxymethyl-tetrahydro-furan-2-yl]-1H pyrimidine-2,4-dione]",515 µM,1 µM,–,–
160 to 163 °C,"N#Cc1ccc(C(NC[C@H]2O[C@@H](n3ccc(=O)[nH]c3=O)C[C@@H]2O)(c2ccccc2)c2ccccc2)cc1 [Example 22, 5′-[(4-cyanotrityl)amino]-2′,5′-dideoxyuridine]",–,–,–,–
131 to 133 °C,"O=c1ccn(C2CC(O)C(CNC(c3ccccc3)(c3ccccc3)c3ccncc3)O2)c(=O)[nH]1 (stereo not shown) [Example 8, 5′-(4-pyridydiphenylmethyl)amino-2′,5′-dideoxyuridine]",–,–,–,–
129 to 131 °C,"O=c1ccn([C@H]2C[C@H](O)[C@@H](CNC(c3ccccc3)(c3ccccc3)c3ccccc3Cl)O2)c(=O)[nH]1 [Example 24, 5′-[(2-chlorotrityl)amino]2′,5′-dideoxyuridine]",–,–,–,–
–,C[C@@H]1CC[C@H]2[C@@H](C)C(=O)O[C@@H]3O[C@@]4(C)CC[C@@H]1[C@]32OO4 [artemisinin],–,–,–,"IC50 (P. falciparum K1; K1 strain, read-out: IC50): 0.8 ng/mL; IC50 (P. falciparum NF54; NF54 strain, read-out: IC50): 1.9 ng/mL"
–,"O=c1ccn([C@H]2C[C@H](O)[C@@H](COC(c3ccccc3)(c3ccccc3)c3ccccc3)O2)c(=O)[nH]1 [drawing 55 Ph3CO, 5′-O-trityl-2′-deoxyuridine]",–,6 µM,1.8 µM,–
–,"O=c1ccn([C@H]2C[C@H](F)[C@@H](COC(c3ccccc3)(c3ccccc3)c3ccccc3)O2)c(=O)[nH]1 [drawing 58 Ph3CO, 3′-Fluoro-5′-O-trityl-2′,3′-dideoxyuridine]",–,2 µM,5 µM,–
–,"O=c1ccn([C@H]2C[C@H](F)[C@@H](CNC(c3ccccc3)(c3ccccc3)c3ccccc3)O2)c(=O)[nH]1 [drawing 58 Ph3NH, 3′-Fluoro-5′-tritylamino-2′,3′,5′-trideoxyuridine]",12 µM,5.3 µM,–,–
–,"CC(C)(C)[Si](OC[C@H]1O[C@@H](n2ccc(=O)[nH]c2=O)C[C@@H]1O)(c1ccccc1)c1ccccc1 [drawing 55 TBDPSO, 5′-O-tert-Butyldiphenylsilyl-2′-deoxyuridine]",–,6.6 µM,4.2 µM,–
–,CCN(CC)CCCC(C)Nc1ccnc2cc(Cl)ccc12 (stereo not shown) [chloroquine],–,–,–,IC50 (P. falciparum K1; K1): 48 ng/mL; IC50 (P. falciparum NF54; NF54): 2.9 ng/mL
140 to 142 °C,"COc1ccc(C(NC[C@H]2O[C@@H](n3ccc(=O)[nH]c3=O)CC2O)(c2ccccc2)c2ccccc2)cc1 (stereo partly shown) (as salt: salt) [Example 23, 5′-paraMethoxytritylamino-2′,5′-dideoxyuridine]",–,–,–,–
–,"O=c1ccn([C@H]2C=C[C@@H](CO[Si](c3ccccc3)(c3ccccc3)c3ccccc3)O2)c(=O)[nH]1 [drawing 57 TPSO, 5′-Triphenylsilyloxy-2′,3′-dideoxydidehydrouridine]",1.3 µM,1 µM,–,–
96 to 97 °C,"COc1ccc(C(OC[C@H]2O[C@@H](n3ccc(=O)[nH]c3=O)CC2O)(c2ccccc2)c2ccccc2)cc1 (stereo partly shown) [Example 20, 5′-O-paramethoxytrityl-2′-deoxyuridine]",–,–,–,–
117 to 119 °C,"O=c1ccn(C2CC(O)C(CNC3(c4ccccc4)c4ccccc4Oc4ccccc43)O2)c(=O)[nH]1 (stereo not shown) [Example 26, 5′-Pixylamino-2′,5′-dideoxyuridine]",–,–,–,–

# From patent publication US7601702B2, “Dutpase Inhibitors” (Medivir AB, priority 2004, dated 2009)
